Read-outs that look alike come from different tables or passages of the source.
Legend:
[1] = target: PI3K-δ (PI3K(p1108/p857) (h)) (Homo sapiens, UniProt O00329); test: Evaluation of inhibitory activity against PI3K-δ (HTRF kinase assay); assay type: biochemical; conditions: for inhibition at 0.1 µM: read-out: EXP_VALUE(% Inhibition) PI3K-δ 0.1 μM; for inhibition at 0.01 µM: compound concentration 0.01 μM, read-out: EXP_VALUE(% Inhibition) PI3K-δ 0.01 μM
Summary of the method: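 HTRF read-out (665/620 nm ratio ×10000) used Eu-labelled anti-GST, GST-tagged GRP1 PH domain and streptavidin-allophycocyanin after EDTA/PIP3 stop.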

[2] = target: DNA-PK(h) (Homo sapiens, UniProt P78527); test: Evaluation of inhibitory activity against DNA-PK (HTRF kinase assay, GST-cMyc-p53 substrate); assay type: biochemical; conditions: for inhibition at 0.1 µM: read-out: EXP_VALUE(% Inhibition) DNA-PK(h) 0.1 μM; for inhibition at 0.01 µM: compound concentration 0.01 μM, read-out: EXP_VALUE(% Inhibition) DNA-PK(h) 0.01 μM
Summary of the method: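 Human DNA-PK with 50 μM GST-cMyc-p53 substrate; reaction started with Mg/ATP, run 30 min at room temperature, stopped with EDTA. Phospho-Ser15 p53 detected by HTRF (Eu anti-phospho-Ser15, d2 anti-GST), signal = 10000×(Em 665/Em 620).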

Sequence of PI3K-δ (PI3K(p1108/p857) (h)) (O00329 whole entry, the tested form may be a part): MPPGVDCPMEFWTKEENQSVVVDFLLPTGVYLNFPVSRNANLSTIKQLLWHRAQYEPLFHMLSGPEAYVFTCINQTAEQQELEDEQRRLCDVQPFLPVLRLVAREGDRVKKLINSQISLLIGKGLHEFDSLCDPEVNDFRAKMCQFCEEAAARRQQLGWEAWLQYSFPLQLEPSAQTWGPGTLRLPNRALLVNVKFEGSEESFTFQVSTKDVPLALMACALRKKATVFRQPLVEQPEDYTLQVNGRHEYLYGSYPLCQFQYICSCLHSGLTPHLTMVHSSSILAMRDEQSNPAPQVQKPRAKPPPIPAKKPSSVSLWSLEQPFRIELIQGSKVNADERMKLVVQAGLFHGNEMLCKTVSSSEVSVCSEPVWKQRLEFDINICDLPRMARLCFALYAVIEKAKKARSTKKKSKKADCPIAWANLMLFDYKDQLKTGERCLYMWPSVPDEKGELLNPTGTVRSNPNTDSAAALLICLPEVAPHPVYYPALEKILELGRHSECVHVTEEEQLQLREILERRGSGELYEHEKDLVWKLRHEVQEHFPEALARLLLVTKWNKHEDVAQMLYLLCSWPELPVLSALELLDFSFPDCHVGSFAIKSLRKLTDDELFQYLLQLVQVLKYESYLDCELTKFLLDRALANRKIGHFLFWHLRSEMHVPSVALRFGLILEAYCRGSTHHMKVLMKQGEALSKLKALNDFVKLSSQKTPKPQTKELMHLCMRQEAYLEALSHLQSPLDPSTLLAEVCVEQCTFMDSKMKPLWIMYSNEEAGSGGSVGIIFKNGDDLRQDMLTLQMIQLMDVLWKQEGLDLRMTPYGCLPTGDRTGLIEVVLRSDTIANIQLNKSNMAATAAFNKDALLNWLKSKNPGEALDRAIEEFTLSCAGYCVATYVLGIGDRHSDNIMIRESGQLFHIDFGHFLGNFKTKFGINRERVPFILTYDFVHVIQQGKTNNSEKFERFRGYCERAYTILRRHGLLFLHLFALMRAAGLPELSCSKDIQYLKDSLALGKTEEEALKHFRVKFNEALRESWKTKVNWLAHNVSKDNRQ
Sequence of PI3K-δ (PI3K(p1108/p857) (h)) (P27986 whole entry partner, the tested form may be a part): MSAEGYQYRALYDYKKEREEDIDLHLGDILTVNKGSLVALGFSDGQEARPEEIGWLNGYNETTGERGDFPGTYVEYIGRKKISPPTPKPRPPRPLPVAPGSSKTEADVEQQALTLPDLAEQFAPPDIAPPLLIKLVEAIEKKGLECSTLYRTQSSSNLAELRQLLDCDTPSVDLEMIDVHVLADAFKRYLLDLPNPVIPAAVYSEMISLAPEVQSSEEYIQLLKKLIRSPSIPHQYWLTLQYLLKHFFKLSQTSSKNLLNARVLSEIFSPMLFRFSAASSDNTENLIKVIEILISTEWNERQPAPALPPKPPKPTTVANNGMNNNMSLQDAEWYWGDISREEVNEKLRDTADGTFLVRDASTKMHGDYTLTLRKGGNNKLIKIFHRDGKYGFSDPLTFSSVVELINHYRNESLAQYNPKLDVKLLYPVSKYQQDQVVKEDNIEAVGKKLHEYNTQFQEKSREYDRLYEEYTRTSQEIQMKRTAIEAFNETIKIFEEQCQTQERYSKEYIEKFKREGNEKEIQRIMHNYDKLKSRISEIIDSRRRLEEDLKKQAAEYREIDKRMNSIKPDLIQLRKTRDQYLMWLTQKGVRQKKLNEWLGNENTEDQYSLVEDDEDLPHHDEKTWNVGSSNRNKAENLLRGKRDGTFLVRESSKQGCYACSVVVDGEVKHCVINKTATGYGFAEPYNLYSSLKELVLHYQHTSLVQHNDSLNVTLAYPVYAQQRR

Compound | inhibition at 0.1 µM ([1]; compound at 0.1 μM) | inhibition at 0.1 µM ([2]; compound at 0.1 μM) | inhibition at 0.01 µM [1] | inhibition at 0.1 µM ([1]; compound concentration 0.1 μM) | inhibition at 0.01 µM [2] | inhibition at 0.1 µM ([2]; compound concentration 0.1 μM)
C[C@H](Nc1ncnc2[nH]ccc(=O)c12)c1c(Cl)c2cccc(C(=O)NCc3ccncc3)c2c(=O)n1-c1ccccc1 [Example 439, (S)-4-chloro-1-oxo-3-(1-((5-oxo-5,8-dihydropyrido[2,3-d]pyrimidin-4-yl)amino)ethyl)-2-phenyl-N-(pyridin-4-ylmethyl)-1,2-dihydroisoquinoline-8-carboxamide] | 92% | 16% |  |  |  | 
C[C@H](Nc1ncnc2[nH]ccc(=O)c12)c1c(Cl)c2cccc(N3CCOCC3)c2c(=O)n1-c1ccccc1 [Example 251, (S)-4-((1-(4-chloro-8-morpholino-1-oxo-2-phenyl-1,2-dihydroisoquinolin-3-yl)ethyl)amino)pyrido[2,3-d]pyrimidin-5(8H)-one] |  |  | 65% | 109% | 6% | 60%
C[C@H](Nc1ncnc2[nH]ccc(=O)c12)c1c(Cl)c2cccc(-c3ccnc(N4CCOCC4)c3)c2c(=O)n1-c1ccccc1 [Example 190, (S)-4-((1-(4-chloro-8-(2-morpholinopyridin-4-yl)-1-oxo-2-phenyl-1,2-dihydroisoquinolin-3-yl)ethyl)amino)pyrido[2,3-d]pyrimidin-5(8H)-one] |  |  | 87% |  | 85% | 
C[C@H](Nc1ncnc2[nH]ccc(=O)c12)c1c(Cl)c2cccc(N3CC4CCCC4C3)c2c(=O)n1-c1ccccc1 (stereo partly drawn) [Example 342, 4-(((1S)-1-(4-chloro-8-(hexahydrocyclopenta[c]pyrrol-2 (1H)-yl)-1-oxo-2-phenyl-1,2-dihydroisoquinolin-3-yl)ethyl)amino)pyrido[2,3-d]pyrimidin-5(8H)-one] |  |  | 15% | 45% | 9% | 58%
C[C@H](Nc1ncnc2[nH]ccc(=O)c12)c1c(Cl)c2cccc(-c3cnc(Cl)c4ccccc34)c2c(=O)n1-c1ccccc1 [Example 69, (S)-1,4′-dichloro-3′-(1-((5-oxo-5,8-dihydropyrido[2,3-d]pyrimidin-4-yl)amino)ethyl)-2′-phenyl-(4,8′-biisoquinolin)-1′(2′H)-one] |  |  | 3.3% | 14.5% | 3% | 2.7%
C[C@H](Nc1ncnc2[nH]ccc(=O)c12)c1c(Cl)c2cccc(S(=O)(=O)c3ccccn3)c2c(=O)n1-c1ccccc1 [Example 414, (S)-4-((1-(4-chloro-1-oxo-2-phenyl-8-(pyridin-2-ylsulfonyl)-1,2-dihydroisoquinolin-3-yl)ethyl)amino)pyrido[2,3-d]pyrimidin-5(8H)-one] | 44% | 32% |  |  |  | 
C[C@H](Nc1ncnc2[nH]ccc(=O)c12)c1c(Cl)c2cccc(-c3ccc(-c4nnc(N)s4)cc3)c2c(=O)n1-c1ccccc1 [Example 92, (S)-4-((1-(8-(4-(5-amino-1,3,4-thiadiazol-2-yl)phenyl)-4-chloro-1-oxo-2-phenyl-1,2-dihydroisoquinolin-3-yl)ethyl)amino)pyrido[2,3-d]pyrimidin-5(8H)-one] |  |  | 91% | 97% | 63% | 92%

Next, values leading:

inhibition at 0.1 µM ([1]; compound at 0.1 μM) | inhibition at 0.1 µM ([2]; compound at 0.1 μM) | inhibition at 0.01 µM [1] | inhibition at 0.1 µM ([1]; compound concentration 0.1 μM) | inhibition at 0.01 µM [2] | inhibition at 0.1 µM ([2]; compound concentration 0.1 μM) | Compound
85% | 16% |  |  |  |  | C[C@H](Nc1ncnc2[nH]ccc(=O)c12)c1cc2cccc(-c3cnc(C(C)(C)O)nc3)c2c(=O)n1-c1ccccc1 [Example 386, (S)-4-((1-(8-(2-(2-hydroxypropan-2-yl)pyrimidin-5-yl)-1-oxo-2-phenyl-1,2-dihydroisoquinolin-3-yl)ethyl)amino)pyrido[2,3-d]pyrimidin-5(8H)-one]
 |  | 83% | 108% | 54% | 95% | COc1cc(-c2cccc3c(Cl)c([C@H](C)Nc4ncnc5[nH]ccc(=O)c45)n(-c4ccccc4)c(=O)c23)ccc1Cl [Example 99, (S)-4-((1-(4-chloro-8-(4-chloro-3-methoxyphenyl)-1-oxo-2-phenyl-1,2-dihydroisoquinolin-3-yl)ethyl)amino)pyrido[2,3-d]pyrimidin-5(8H)-one]
 |  | 87% | 95% | 77% | 97% | C[C@H](Nc1ncnc2[nH]ccc(=O)c12)c1c(Cl)c2cccc(-c3ccc4c(c3)ncn4C)c2c(=O)n1-c1ccccc1 [Example 114, (S)-4-((1-(4-chloro-8-(1-methyl-1H-benzo[d]imidazol-5-yl)-1-oxo-2-phenyl-1,2-dihydroisoquinolin-3-yl)ethyl)amino)pyrido[2,3-d]pyrimidin-5(8H)-one]
33% | 53% |  |  |  |  | C[C@H](Nc1ncnc2[nH]ccc(=O)c12)c1c(Cl)c2cccc(Oc3cccnc3)c2c(=O)n1-c1ccccc1 [Example 437, (S)-4-((1-(4-chloro-1-oxo-2-phenyl-8-(pyridin-3-yloxy)-1,2-dihydroisoquinolin-3-yl)ethyl)amino)pyrido[2,3-d]pyrimidin-5(8H)-one]
29% | 15% |  |  |  |  | C[C@H](Nc1ncnc2[nH]ccc(=O)c12)c1c(Cl)c2cccc(Sc3ccccn3)c2c(=O)n1-c1ccccc1 [Example 412, (S)-4-((1-(4-chloro-1-oxo-2-phenyl-8-(pyridin-2-ylthio)-1,2-dihydroisoquinolin-3-yl)ethyl)amino)pyrido[2,3-d]pyrimidin-5(8H)-one]
 |  | 102% | 114% | 6% | 21% | C[C@H](Nc1ncnc2[nH]ccc(=O)c12)c1cc2cccc(-c3cccnc3)c2c(=O)n1-c1ccccc1 [Example 12, (S)-4-((1-(1-oxo-2-phenyl-8-(pyridin-3-yl)-1,2-dihydroisoquinolin-3-yl)ethyl)amino)pyrido[2,3-d]pyrimidin-5(8H)-one]
 |  | 95% | 96% | 44% | 84% | C[C@H](Nc1ncnc2[nH]ccc(=O)c12)c1c(Cl)c2cccc(-c3ccc(F)cc3)c2c(=O)n1-c1ccccc1 [Example 63, (S)-4-((1-(4-chloro-8-(4-fluorophenyl)-1-oxo-2-phenyl-1,2-dihydroisoquinolin-3-yl)ethyl)amino)pyrido[2,3-d]pyrimidin-5(8H)-one]
 |  | 94% |  | 57% |  | Cc1nc(N)ncc1-c1cccc2c(Cl)c([C@H](C)Nc3ncnc4[nH]ccc(=O)c34)n(-c3ccccc3)c(=O)c12 [Example 212, (S)-4-((1-(8-(2-amino-4-methylpyrimidin-5-yl)-4-chloro-1-oxo-2-phenyl-1,2-dihydroisoquinolin-3-yl)ethyl)amino)pyrido[2,3-d]pyrimidin-5(8H)-one]
 |  | 106% |  | 79% |  | C[C@H](Nc1ncnc2[nH]ccc(=O)c12)c1c(Cl)c2cccc(-c3cnc(NC4CC4)nc3)c2c(=O)n1-c1ccccc1 [Example 203, (S)-4-((1-(4-chloro-8-(2-(cyclopropylamino)pyrimidin-5-yl)-1-oxo-2-phenyl-1,2-dihydroisoquinolin-3-yl)ethyl)amino)pyrido[2,3-d]pyrimidin-5(8H)-one]
